Test results published in ChEMBL document CHEMBL3739388, “Attenuation of TNF-α secretion by L-proline-based cyclic dipeptides produced by culture broth of Pseudomonas aeruginosa” (Bioorg Med Chem Lett, 2015).
In brackets after ≈: the same amount, converted by molar mass.

Columns and labels:
RAW264.7 [1] = test: Toxicity in mouse RAW264.7 cells assessed as effect on NO production by Griess method; assay type: cell-based
RAW264.7 [2] = test: Inhibition of LPS-induced NO production in mouse RAW264.7 cells at 100 ug/ml cotreated with 1 ug/ml LPS for 16 hrs by Griess reagent method; assay type: functional
[3] = Cytotoxicity against mouse RAW264.7 cells assessed as decrease in cell viability pretreated at 50 uM for 1 hr followed by addition of LPS incubated for 24 hrs by MTT assay; assay type: cell-based; conditions: read-out: INH
RAW264.7 [4] = test: Inhibition of LPS-induced IL-1beta mRNA level in mouse RAW264.7 cells in presence of 1 ug/ml LPS for 6 hrs by qRT-PCR analysis; assay type: functional, cell-based
RAW264.7 [5] = test: Toxicity in mouse RAW264.7 cells assessed as effect on TNF-alpha mRNA level by qRT-PCR analysis; assay type: cell-based
RAW264.7 [6] = test: Inhibition of LPS-induced TNF-alpha mRNA level in mouse RAW264.7 cells in presence of 1 ug/ml LPS for 6 hrs by qRT-PCR analysis; assay type: functional, cell-based
RAW264.7 [7] = test: Inhibition of LPS-induced TNF-alpha production in mouse RAW264.7 cells pretreated with compound for 1 hr followed by addition of 1 ug/ml LPS for 6 hrs by ELISA; assay type: functional, cell-based
RAW264.7 [8] = test: Inhibition of LPS-induced IL-6 mRNA level in mouse RAW264.7 cells in presence of 1 ug/ml LPS for 6 hrs by qRT-PCR analysis; assay type: functional, cell-based
RAW264.7 [9] = test: Inhibition of LPS-induced TNF-alpha production in mouse RAW264.7 cells pretreated with compound at 100 uM for 1 hr followed by addition of 1 ug/ml LPS for 6 hrs by ELISA; assay type: functional
Rattus norvegicus = test: Inhibition of LPS-induced TNF-alpha production in albino Wistar rat plasma pretreated with compound at 50 mg/kg, po followed by administration of 0.3 mg/kg, ip LPS measured after 90 mins by ELISA; assay type: functional
RAW264.7 [10] = test: Inhibition of LPS-induced TNF-alpha production in mouse RAW264.7 cells pretreated with compound at 10 uM for 1 hr followed by addition of 1 ug/ml LPS for 6 hrs by ELISA; assay type: functional

## O=C1NCC(=O)N2CCC[C@@H]12 [CYCLO(PROLYLGLYCYL)]
RAW264.7 [1]
  Activity: Non-toxic
RAW264.7 [2]
  inhibition (INH): 39.7%
[3]
  cytotoxicity at 24 h, 50 µM: 3%
RAW264.7 [4]
  inhibition: Dose-dependent effect
RAW264.7 [5]
  Activity: Non-toxic
RAW264.7 [6]
  inhibition: Dose-dependent effect
RAW264.7 [7]
  IC50: 4.5 µg/mL (≈ 29.2 µM)
RAW264.7 [8]
  inhibition: Dose-dependent effect

## O=C1N[C@@H](Cc2ccccc2)C(=O)N2C[C@H](O)C[C@@H]12
RAW264.7 [1]
  Activity: Non-toxic
RAW264.7 [2]
  inhibition (INH): 43.5%
[3]
  cytotoxicity at 24 h, 50 µM: 3%
RAW264.7 [4]
  inhibition: Dose-dependent effect
RAW264.7 [5]
  Activity: Non-toxic
RAW264.7 [6]
  inhibition: Dose-dependent effect
RAW264.7 [7]
  IC50: 14.2 µg/mL (≈ 54.6 µM)
RAW264.7 [8]
  inhibition: Dose-dependent effect

## O=C1N[C@@H](Cc2ccccc2)C(=O)N2CCC[C@@H]12
RAW264.7 [1]
  Activity: Non-toxic
RAW264.7 [9]
  inhibition (INH): 45%
[3]
  cytotoxicity at 24 h, 50 µM: 3%
RAW264.7 [4]
  inhibition: Dose-dependent effect
RAW264.7 [5]
  Activity: Non-toxic
RAW264.7 [6]
  inhibition: Dose-dependent effect
RAW264.7 [8]
  inhibition: Dose-dependent effect

## CC(C)C[C@@H]1NC(=O)[C@@H]2C[C@@H](O)CN2C1=O
RAW264.7 [1]
  Activity: Non-toxic
Rattus norvegicus
  inhibition (INH): 51%
RAW264.7 [9]
  inhibition (INH): 49.3%
[3]
  cytotoxicity at 24 h, 50 µM: 3%
RAW264.7 [4]
  inhibition: Dose-dependent effect
RAW264.7 [5]
  Activity: Non-toxic
RAW264.7 [6]
  inhibition: Dose-dependent effect
RAW264.7 [8]
  inhibition: Dose-dependent effect

## C[C@]12C=CC(=O)C=C1CC[C@@H]1[C@@H]2[C@@H](O)C[C@@]2(C)[C@H]1CC[C@]2(O)C(=O)CO [PREDNISOLONE]
RAW264.7 [10]
  inhibition (INH): 42.8%
